Assay results published in PubChem BioAssay AID2060907 (Molecular Pharmacology Branch, DTP, NCI, 2025).

Test system: 388556-164-R-J1-PDC complex spheroid viability
Assay: Anticancer human tumor 388556-164-R-J1-PDC patient-derived colon adenocarcinoma cell line growth inhibition [RAS]
Details: for IC50: curve of first compound; for viability, T/C: stronger effect = lower value
Description: RAS pathway inhibitors in Combinations in Complex Spheroids
A high-throughput screen of multi-cell type tumor spheroids was designed to identify active combinations of RAS pathway inhibitors and targeted small molecules. Complex spheroids include a stromal component modeled by human endothelial cells (HUVEC) and fibroblasts modeled by human mesenchymal stem cells (MSCs). The concentration ranges selected for each drug and investigational agent were based upon clinically achievable concentrations if the clinical Cmax of the agent was known.
Compounds. The drugs and investigational agents: abemaciclib (NSC768073), cobimetinib (NSC768068), divarasib (GDC6063, NSC841802), docetaxel (NSC628503), GDC-1971 (RLY-1971, NSC841576), gemcitabine (NSC613327), inavolisib (NSC800729), ipatasertib (NSC767898), KB-0742 (NSC834161), MRTX-1133 (NSC836407), osimertinib (NSC779217), RMC-4630 (NSC839698), RMC-6236 (NSC851965), RMC-6291 (NSC852671), Ro-3306 (NSC812927), sapanisertib (NSC764658), SN-38 (NSC673596), staurosporine (NSC755774), SY5609 (NSC837396), and tovorafenib (DAY101, NSC766906), were obtained from the National Cancer Institute (NCI) Developmental Therapeutics Program Chemical Repository. The FDA-approved anticancer drug set is available from the NCI Developmental Therapeutics Program. […] The stock solutions were prepared in dimethyl sulfoxide (DMSO, Sigma-Aldrich, St. Louis, MO, cat. D2650) at 800-fold the tested concentration and stored at -70 degrees C prior to their use. All drugs and investigational agents were tested over a range starting from a high concentration at or near the clinical Cmax and decreasing in half-log increments. If the clinical Cmax for an agent had not been determined, the highest concentration tested was 10 microM.
Cell Culture. All cells were maintained in an incubator at 37 degrees C and 5% CO2 with 95% humidity. The PDC lines were cultured according to standard operating procedures established by the NCI PDMR. All PDCs were thawed and cultured in Matrigel-coated flasks prepared with a working solution of 1X Ham's F-12 nutrient mix, without supplementation (Invitrogen, Waltham, MA, cat. 11765054), 100 U/mL penicillin-streptomycin (Invitrogen, cat. 15140122), and 2.5% Matrigel (Corning Inc., Corning, NY, cat. 354248) for the first three passages. The 362531-283-R-J2-PDC and 782815-120-R-J1-PDC lines were cultured in 6C/Colon 1B media, which includes advanced DMEM/F-12 (Thermo Fisher Scientific, cat. 12634028), 10 mM HEPES (Thermo Fisher Scientific, cat. 15630080), 1X GlutaMAX supplement (Thermo Fisher Scientific, cat. 35050061), 0.1 mg/mL primocin (InvivoGen, San Diego, CA, cat. ant-pm-2), 10% defined fetal bovine serum, heat inactivated (HyClone Laboratories Inc., Logan, UT, cat. SH30070.03HI), 50% L-WRN conditioned media (ATCC, cat. CRL-3276), 1.25 mM N-Acetyl-L-cysteine (Sigma-Aldrich, cat. A9165), 10 mM nicotinamide (Sigma-Aldrich, cat. N0636), 1X B-27 supplement (Thermo Fisher Scientific, cat. 17504044), 1X N-2 supplement (Thermo Fisher Scientific, cat. 17502048), 50 ng/mL human EGF (Thermo Fisher Scientific, cat. PHG0311), and 10 microM Y-27632 dihydrochloride (Tocris Bioscience, cat. 1254). The K12877-001-R-J1-PDC line was cultured in 6I media, which includes all 6C/Colon 1B media plus 10 ng/mL human FGF-10 (PeproTech, cat. 100-26), 1 ng/mL human FGF-2 (PeproTech, cat. 100-18B), 1 µM prostaglandin E2 (Tocris Bioscience, cat. 2296), […] hydrocortisone (Sigma-Aldrich, cat. H4001), and […] bovine insulin (Sigma-Aldrich, cat. I6634). The K86415-001-R-J1-PDC line was cultured in 6D media, which includes all 6C/Colon 1B media components minus the L-WRN conditioned media. The 485176-168-R4-J1-PDC was cultured in PANC media, which includes all 6C/Colon 1B media plus 100 ng/mL human FGF-10 (PeproTech, cat. 100-26), 500 nM SB-431542 (Selleckchem, cat. S1067), and 10 nM gastrin (Tocris Bioscience, cat. 3006). […]

[1] = second compound 0.0316 µM, first compound 0.0316 µM
[2] = second compound 0.0316 µM, first compound 0.1 µM
[3] = second compound 0.0316 µM, first compound 0.316 µM
[4] = second compound 0.0316 µM, first compound 1 µM
[5] = second compound 0.0316 µM, first compound 3.16 µM
[6] = second compound 0.0316 µM, first compound 10 µM
[7] = second compound 0.1 µM, first compound 0.0316 µM
[8] = second compound 0.1 µM, first compound 0.1 µM
[9] = second compound 0.1 µM, first compound 0.316 µM
[10] = second compound 0.1 µM, first compound 1 µM
[11] = second compound 0.1 µM, first compound 3.16 µM
[12] = second compound 0.1 µM, first compound 10 µM
[13] = second compound 0.316 µM, first compound 0.0316 µM
[14] = second compound 0.316 µM, first compound 0.1 µM
[15] = second compound 0.316 µM, first compound 0.316 µM
[16] = second compound 0.316 µM, first compound 1 µM
[17] = second compound 0.316 µM, first compound 3.16 µM
[18] = second compound 0.316 µM, first compound 10 µM
[19] = second compound 1 µM, first compound 0.0316 µM
[20] = second compound 1 µM, first compound 0.1 µM
[21] = second compound 1 µM, first compound 0.316 µM
[22] = second compound 1 µM, first compound 1 µM
[23] = second compound 1 µM, first compound 3.16 µM
[24] = second compound 1 µM, first compound 10 µM
[25] = second compound 3.16 µM, first compound 0.0316 µM
[26] = second compound 3.16 µM, first compound 0.1 µM
[27] = second compound 3.16 µM, first compound 0.316 µM
[28] = second compound 3.16 µM, first compound 1 µM
[29] = second compound 3.16 µM, first compound 3.16 µM
[30] = second compound 3.16 µM, first compound 10 µM
[31] = second compound 10 µM, first compound 0.0316 µM
[32] = second compound 10 µM, first compound 0.1 µM
[33] = second compound 10 µM, first compound 0.316 µM
[34] = second compound 10 µM, first compound 1 µM
[35] = second compound 10 µM, first compound 3.16 µM
[36] = second compound 10 µM, first compound 10 µM
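Also: spheroids exposed to compound for 7 days before readout.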
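For viability, T/C in this document: 100% = DMSO vehicle control luminescence.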

CC(C)NCC(C(=O)N1CCN(c2ncnc3c2C(C)CC3O)CC1)c1ccc(Cl)cc1 (stereo unspecified) + C#Cc1c(F)ccc2cc(O)cc(-c3ncc4c(N5CC6CCC(C5)N6)nc(OCC56CCCN5CC(F)C6)nc4c3F)c12
IC50 (second compound 0.0316 µM): > 10000 nM | IC50 (second compound 0.1 µM): > 10000 nM | IC50 (second compound 0.316 µM): > 10000 nM | IC50 (second compound 1 µM): > 10000 nM | IC50 (second compound 3.16 µM): > 10000 nM | IC50 (second compound 10 µM): 8860 nM | viability, T/C [1]: 95.9% | viability, T/C [2]: 106% | viability, T/C [3]: 109% | viability, T/C [4]: 98.6% | viability, T/C [5]: 99.2% | viability, T/C [6]: 100% | viability, T/C [7]: 98.5% | viability, T/C [8]: 107% | viability, T/C [9]: 99.7% | viability, T/C [10]: 96% | viability, T/C [11]: 113% | viability, T/C [12]: 93.6% | viability, T/C [13]: 99% | viability, T/C [14]: 105% | viability, T/C [15]: 88.5% | viability, T/C [16]: 99.2% | viability, T/C [17]: 107% | viability, T/C [18]: 82.3% | viability, T/C [19]: 95.5% | viability, T/C [20]: 93.1% | viability, T/C [21]: 69.4% | viability, T/C [22]: 92.1% | viability, T/C [23]: 93.5% | viability, T/C [24]: 77.8% | viability, T/C [25]: 80.6% | viability, T/C [26]: 66.6% | viability, T/C [27]: 75.9% | viability, T/C [28]: 83.8% | viability, T/C [29]: 88.4% | viability, T/C [30]: 59.4% | viability, T/C [31]: 69.2% | viability, T/C [32]: 67.3% | viability, T/C [33]: 73.2% | viability, T/C [34]: 87.2% | viability, T/C [35]: 42% | viability, T/C [36]: 53.3%

CC(C)n1nc(-c2ccc3oc(N)nc3c2)c2c(N)ncnc21 + C#Cc1c(F)ccc2cc(O)cc(-c3ncc4c(N5CC6CCC(C5)N6)nc(OCC56CCCN5CC(F)C6)nc4c3F)c12
IC50 (second compound 0.0316 µM): 98.5 nM | IC50 (second compound 0.1 µM): 78.5 nM | IC50 (second compound 0.316 µM): 48.7 nM | IC50 (second compound 1 µM): 41.6 nM | IC50 (second compound 3.16 µM): 39.2 nM | IC50 (second compound 10 µM): 10.6 nM | viability, T/C (second compound 0.0316 µM, first compound 0.000316 µM): 98.6% | viability, T/C (second compound 0.0316 µM, first compound 0.001 µM): 97.7% | viability, T/C (second compound 0.0316 µM, first compound 0.00316 µM): 89.9% | viability, T/C (second compound 0.0316 µM, first compound 0.01 µM): 75.7% | viability, T/C [1]: 64% | viability, T/C [2]: 49.4% | viability, T/C (second compound 0.1 µM, first compound 0.000316 µM): 95.7% | viability, T/C (second compound 0.1 µM, first compound 0.001 µM): 99.7% | viability, T/C (second compound 0.1 µM, first compound 0.00316 µM): 90.6% | viability, T/C (second compound 0.1 µM, first compound 0.01 µM): 78.5% | viability, T/C [7]: 62.6% | viability, T/C [8]: 46.6% | viability, T/C (second compound 0.316 µM, first compound 0.000316 µM): 91.6% | viability, T/C (second compound 0.316 µM, first compound 0.001 µM): 97.1% | viability, T/C (second compound 0.316 µM, first compound 0.00316 µM): 79.5% | viability, T/C (second compound 0.316 µM, first compound 0.01 µM): 79.5% | viability, T/C [13]: 56% | viability, T/C [14]: 37.8% | viability, T/C (second compound 1 µM, first compound 0.000316 µM): 90.5% | viability, T/C (second compound 1 µM, first compound 0.001 µM): 88% | viability, T/C (second compound 1 µM, first compound 0.00316 µM): 69.9% | viability, T/C (second compound 1 µM, first compound 0.01 µM): 71.5% | viability, T/C [19]: 55.6% | viability, T/C [20]: 35.5% | viability, T/C (second compound 3.16 µM, first compound 0.000316 µM): 82.2% | viability, T/C (second compound 3.16 µM, first compound 0.001 µM): 74.4% | viability, T/C (second compound 3.16 µM, first compound 0.00316 µM): 68.5% | viability, T/C (second compound 3.16 µM, first compound 0.01 µM): 73.5% | viability, T/C [25]: 52.3% | viability, T/C [26]: 31.4% | viability, T/C (second compound 10 µM, first compound 0.000316 µM): 74.6% | viability, T/C (second compound 10 µM, first compound 0.001 µM): 59.9% | viability, T/C (second compound 10 µM, first compound 0.00316 µM): 60.1% | viability, T/C (second compound 10 µM, first compound 0.01 µM): 53.3% | viability, T/C [31]: 40.3% | viability, T/C [32]: 29.9%

CC(Nc1ccc2c(c1)OCCn1cc(N3C(=O)OCC3C(F)F)nc1-2)C(N)=O (stereo unspecified) + C#Cc1c(F)ccc2cc(O)cc(-c3ncc4c(N5CC6CCC(C5)N6)nc(OCC56CCCN5CC(F)C6)nc4c3F)c12
IC50 (second compound 0.0316 µM): > 10000 nM | IC50 (second compound 0.1 µM): > 10000 nM | IC50 (second compound 0.316 µM): > 10000 nM | IC50 (second compound 1 µM): 8110 nM | IC50 (second compound 3.16 µM): 2960 nM | IC50 (second compound 10 µM): 1040 nM | viability, T/C [1]: 94.9% | viability, T/C [2]: 95.5% | viability, T/C [3]: 94% | viability, T/C [4]: 78.8% | viability, T/C [5]: 76.6% | viability, T/C [6]: 66.6% | viability, T/C [7]: 93.6% | viability, T/C [8]: 90.7% | viability, T/C [9]: 83.3% | viability, T/C [10]: 81% | viability, T/C [11]: 77% | viability, T/C [12]: 62.3% | viability, T/C [13]: 94.8% | viability, T/C [14]: 84.3% | viability, T/C [15]: 74.2% | viability, T/C [16]: 69.9% | viability, T/C [17]: 72% | viability, T/C [18]: 51.9% | viability, T/C [19]: 82.1% | viability, T/C [20]: 89.9% | viability, T/C [21]: 58.1% | viability, T/C [22]: 69.4% | viability, T/C [23]: 69.2% | viability, T/C [24]: 43.6% | viability, T/C [25]: 82.4% | viability, T/C [26]: 63.2% | viability, T/C [27]: 64.2% | viability, T/C [28]: 59.5% | viability, T/C [29]: 53.3% | viability, T/C [30]: 38.4% | viability, T/C [31]: 59.4% | viability, T/C [32]: 57.2% | viability, T/C [33]: 55.1% | viability, T/C [34]: 50.8% | viability, T/C [35]: 29.5% | viability, T/C [36]: 31.1%
